This is an account of results in patent publication US20080103110A1, “Compounds” (DRUG DISCOVERY LABORATORY AS, priority 2004, published 2008).

The structures appear in SMILES notation. Where a name gives a salt, the structure may show the parent alone.

T1 sequence (P02769 25-607): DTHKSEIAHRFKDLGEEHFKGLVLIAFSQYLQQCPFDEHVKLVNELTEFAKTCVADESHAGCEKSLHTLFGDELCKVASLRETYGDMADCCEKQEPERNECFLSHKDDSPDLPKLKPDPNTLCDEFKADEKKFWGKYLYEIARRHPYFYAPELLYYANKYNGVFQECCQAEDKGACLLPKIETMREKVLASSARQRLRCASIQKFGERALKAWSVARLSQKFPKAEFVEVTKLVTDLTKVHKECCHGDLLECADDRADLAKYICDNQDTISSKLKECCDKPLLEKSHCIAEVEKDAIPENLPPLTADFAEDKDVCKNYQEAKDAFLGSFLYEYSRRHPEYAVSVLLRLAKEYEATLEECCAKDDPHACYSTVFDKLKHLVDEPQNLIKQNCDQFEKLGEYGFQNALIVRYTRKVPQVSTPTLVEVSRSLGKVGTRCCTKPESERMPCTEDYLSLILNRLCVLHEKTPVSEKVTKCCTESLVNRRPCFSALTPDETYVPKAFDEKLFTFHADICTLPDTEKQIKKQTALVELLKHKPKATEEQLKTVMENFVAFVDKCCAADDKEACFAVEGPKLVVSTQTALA

The first data set has as its system implanted human colon cancer. Description: Efficacy of cytarabin azelaic acid derivative versus cytarabin, tumor size in nude mice. The data set is classed as in vivo. The note with it: solutions of Example 46, 0.1 ml i.p. twice, tumor size determined at day 13. Here is the method:
A solution of cytarabin hydrochloride was prepared by dissolving the hydrochloride salt (5.0 mg) in a sterile saline solution (1.0 ml). The solution was shaken with a ESPE Capmix shaker for 60 seconds before injection.
(§1) A solution of 5′-O-(azelaoyl) 1-β-D-arabinofuranosyl-cytosine meglumine salt was prepared by dissolving N-methyl-D-glucamine (6.0 mg, 0.030 mmol) and 5′-O-(azelaoyl) 1-β-D-arabinofuranosyl-cytosine (8.5 mg, 0.020 mmol) in a sterile saline solution (1.0 ml). The solution was shaken with a ESPE Capmix shaker for 60 seconds before injection.
(§2) The solution for injection (azelaoyl derivative) from Example 46 was administered i.p. twice (0.1 ml) to 4 nude mice (20 g). The mice had implanted human colon cancer on the leg. The second injection was on day 3.
The solutions (cytarabin and cytarabine azelaic derivative) described in Example 46 were injected as described in Example 47 (4 animals in each group). The size of the tumor was determined at day 13.
For the compound `CNC[C@H](O)[C@@H](O)[C@H](O)[C@H](O)CO.Nc1ccn([C@@H]2O[C@H](COC(=O)CCCCCCCC(=O)O)[C@@H](O)[C@@H]2O)c(=O)n1` [Example 45, 5′-O-(azelaoyl) 1-β-D-arabinofuranosyl-cytosine meglumine salt], the average tumor growth result is “average tumor growth was higher for cytarabin treated mice than for mice treated with azelaic acid derivative”.
As for `Nc1ccn([C@@H]2O[C@H](CO)[C@@H](O)[C@@H]2O)c(=O)n1` [cytarabin, cytarabin hydrochloride, reference compound], the average tumor growth result was “higher for cytarabin treated mice than for mice treated with azelaic acid derivative”.

The next data set addresses T1, bovine serum albumin (BSA) (Bos taurus, UniProt P02769).
T1 construct: a solution of bovine serum albumin (BSA) in water
The data set is described as follows: Protein binding studies: BSA solution, centrifugal filter devices, drug in filtrate by HPLC. The data set is classed as in vitro ADME. The note with it: 6-mercaptopurine and 6-mercaptopurine prodrugs; method of Example 7, 4% BSA, 37° C. Here is the method: The compound (approximately 5 mg) was dissolved in DMSO (approximately 1.8 ml). A small sample of this DMSO solution (approximately 5 mg) was added to a solution of bovine serum albumin (BSA) in water (approximately 1.8 ml, 4% BSA). Another sample of the DMSO solution (approximately 5 mg) was added to a solution of phosphate buffer pH 7.4 (isotonic) (approximately 1.8 ml).
Both samples were shaken in a water bath for 30 minutes at 37° C.
The devices were centrifugated at 4000 rpm for 1 hour at 37° C.
The amount of drug in the filtrates was determined by HPLC (C-18 column, phosphate buffer pH 2.2/acetonitrile, UV detection).
Turning to `Sc1ncnc2nc[nH]c12` [6-Mercaptopurine, reference compound], the “% Albumin binding” value came to 10%.
`COC(=O)CCCCCSc1ncnc2[nH]cnc12` [Example 9, 6-(1H-purin-6-ylthio)-hexanoic acid methyl ester]: the “% Albumin binding” value turned out to be 72%.
Same read-out and setting: next, `COC(=O)CCCCCCCCCCCSc1ncnc2[nH]cnc12` [Example 10, 12-(1H-purin-6-ylthio)-dodecanoic acid methyl ester]: “insoluble”; `O=C(O)CCCCCCCCCCCSc1ncnc2[nH]cnc12` [Example 11, 12-(1H-purin-6-ylthio)dodecanoic acid]: 100%.

Staying with this data set, now noted: didanosine and didanosine prodrugs; method of Example 7, 4% BSA, 37° C.
On to `O=C(O)CCCCC(=O)OCC1CCC(n2cnc3c(=O)[nH]cnc32)O1` (stereo not drawn) [Example 21, 2′,3′-dideoxy-5′-hydrogen hexanedioate inosine], for which the “% Albumin binding” value is listed as 100%.
`O=C(O)CCCCCCC(=O)OCC1CCC(n2cnc3c(=O)[nH]cnc32)O1` (stereo not drawn) [Example 22, 2′,3′-dideoxy-5′-hydrogen octanedioate inosine]: the “% Albumin binding” value is recorded as 10%.
The same measure, in the same setting: then `O=C(O)CCCCCCCCCCC(=O)OCC1CCC(n2cnc3c(=O)[nH]cnc32)O1` (stereo not drawn) [Example 23, 2′,3′-dideoxy-5′-hydrogen dodecanedioate inosine], with 40%; and `CC(C)(C)OC(=O)OC[C@@H]1CC[C@H](n2cnc3c(O)ncnc32)O1` [Example 24, 5′-Boc,-2′3′-dideoxyinosine], with 94%.

The same data set, now with this note: didanosine derivatives of Examples 24 and 25; 4% BSA, 37° C.
On to `O=C(O)Cc1ccccc1CC(=O)OC[C@@H]1CC[C@H](n2cnc3c(O)ncnc32)O1` [5′-(2′3′-dideoxyinosine) mono 1,2-benzenediacetic acid ester], for which the “% Protein Binding” value amounted to 25%.
Take `O=C(O)CCc1ccc(CCC(=O)OC[C@@H]2CC[C@H](n3cnc4c(O)ncnc43)O2)cc1` [5′-(2′3′-dideoxyinosine) mono 1,4-benzenedipropionic acid ester]: the “% Protein Binding” value is 63%.
The same measure, in the same setting: then `O=C(O)Cc1cccc(CC(=O)OC[C@@H]2CC[C@H](n3cnc4c(O)ncnc43)O2)c1` [5′-(2′,3′-dideoxyinosine) mono 1,3-benzenediacetic acid ester], with 38%; and `O=C(O)c1cccc(C(=O)OC[C@@H]2CC[C@H](n3cnc4c(O)ncnc43)O2)c1` [5′-(2′,3′-dideoxyinosine) mono 1,3-benzenedicarboxylic acid ester], with 51%.
For `O=C(O)Cc1ccc(CC(=O)OC[C@@H]2CC[C@H](n3cnc4c(O)ncnc43)O2)cc1` [5′-(2′,3′-dideoxyinosine) mono 1,4-benzenediacetic acid ester], the “% Protein Binding” value was 28%.
Turning to `O=C(O)c1ccc(C(=O)OC[C@@H]2CC[C@H](n3cnc4c(O)ncnc43)O2)cc1` [5′-(2′,3′-dideoxyinosine) mono 1,4-benzenedicarboxylic acid ester], the “% Protein Binding” value is recorded as 44%.
With `CC(C)(C)OC(=O)OC[C@@H]1CC[C@H](n2cnc3c(O)ncnc32)O1` [Example 24, 5′-Boc,-2′3′-dideoxyinosine], the “% Protein Binding” value stood at 8%.

The test system of the next data set is nude mice. Description: Toxicity of 5-O-(azelaoyl) 1-beta-D-arabinofuranosyl-cytosine meglumine salt in nude mice. The class given is in vivo. The note with it: 8.5 mg/ml solution, 0.1 ml i.p. twice (second injection on day 3), nude mice (20 g) with implanted human colon cancer, observed for 13 days. Here is the method: as §1, §2
In the case of `CNC[C@H](O)[C@@H](O)[C@H](O)[C@H](O)CO.Nc1ccn([C@@H]2O[C@H](COC(=O)CCCCCCCC(=O)O)[C@@H](O)[C@@H]2O)c(=O)n1` [Example 45, 5′-O-(azelaoyl) 1-β-D-arabinofuranosyl-cytosine meglumine salt], the sign of toxicity entry was “did not show any sign of toxicity”.
